For 2 compounds, KI (inactivation) and Ki results are on record in PMC3491871 (The Journal of biological chemistry, 2004).

Experiment [1] deals with T1, trypanothione reductase (Trypanosoma cruzi, UniProt P28593). Nature of the experiment: crystal structure of the covalent adduct at […] Å. The class given is biochemical. The following applies: read-out: Ki.
The target in experiment [2] is T1, trypanothione reductase. Description: protection of oxidised enzyme from QM inactivation. The class given is biochemical.

T1 sequence (P28593 whole entry): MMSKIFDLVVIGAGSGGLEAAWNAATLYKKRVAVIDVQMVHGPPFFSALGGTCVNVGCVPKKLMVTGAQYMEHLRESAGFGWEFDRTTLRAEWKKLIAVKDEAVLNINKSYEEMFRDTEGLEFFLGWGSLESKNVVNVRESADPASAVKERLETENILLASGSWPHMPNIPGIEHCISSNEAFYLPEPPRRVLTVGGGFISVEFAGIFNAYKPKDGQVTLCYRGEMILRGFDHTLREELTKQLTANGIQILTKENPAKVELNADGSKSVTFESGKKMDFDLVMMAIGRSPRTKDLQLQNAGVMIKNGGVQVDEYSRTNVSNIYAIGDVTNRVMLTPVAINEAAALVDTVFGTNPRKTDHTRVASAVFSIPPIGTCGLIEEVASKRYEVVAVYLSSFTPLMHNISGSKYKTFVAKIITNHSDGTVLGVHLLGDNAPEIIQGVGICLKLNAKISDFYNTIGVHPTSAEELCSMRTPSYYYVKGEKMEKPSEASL

For the compound `COc1ccc2nc3cc(Cl)ccc3c(NC(C)CCCN(CCCl)CCCl)c2c1` (racemic) [QM, quinacrine mustard], in experiment [1], the KI (inactivation) was found to be 41 ± 8 µM. The compound `CCN(CC)CCCC(C)Nc1c2ccc(Cl)cc2nc2ccc(OC)cc12` (centres unmarked) [quinacrine] came in with a Ki in experiment [2] of 208 ± 45 µM.
